# “And” between values parts separate entries of the source, which are not always exact repeats. Equal values may be shown once.
# T1: UDP-glucuronosyltransferase 1A4 (Homo sapiens, UniProt P22310)
# T1 sequence (P22310 whole entry): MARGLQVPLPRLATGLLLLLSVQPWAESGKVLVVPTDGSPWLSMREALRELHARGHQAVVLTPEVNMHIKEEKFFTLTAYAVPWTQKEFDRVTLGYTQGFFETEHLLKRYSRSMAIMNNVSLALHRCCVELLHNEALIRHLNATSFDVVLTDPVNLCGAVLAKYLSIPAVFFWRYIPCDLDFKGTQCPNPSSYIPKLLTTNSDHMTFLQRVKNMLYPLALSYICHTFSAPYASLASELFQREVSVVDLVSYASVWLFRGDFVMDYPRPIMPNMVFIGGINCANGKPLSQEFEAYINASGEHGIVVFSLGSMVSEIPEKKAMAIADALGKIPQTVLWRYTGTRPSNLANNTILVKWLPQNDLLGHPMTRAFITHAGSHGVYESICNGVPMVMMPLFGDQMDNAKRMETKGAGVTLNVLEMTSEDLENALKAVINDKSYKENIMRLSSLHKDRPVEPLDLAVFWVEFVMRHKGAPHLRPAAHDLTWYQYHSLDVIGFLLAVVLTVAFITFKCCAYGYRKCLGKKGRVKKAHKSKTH
# T2: UDP-glucuronosyltransferase 2B7 (Homo sapiens, UniProt P16662)
# T2 sequence (P16662 whole entry): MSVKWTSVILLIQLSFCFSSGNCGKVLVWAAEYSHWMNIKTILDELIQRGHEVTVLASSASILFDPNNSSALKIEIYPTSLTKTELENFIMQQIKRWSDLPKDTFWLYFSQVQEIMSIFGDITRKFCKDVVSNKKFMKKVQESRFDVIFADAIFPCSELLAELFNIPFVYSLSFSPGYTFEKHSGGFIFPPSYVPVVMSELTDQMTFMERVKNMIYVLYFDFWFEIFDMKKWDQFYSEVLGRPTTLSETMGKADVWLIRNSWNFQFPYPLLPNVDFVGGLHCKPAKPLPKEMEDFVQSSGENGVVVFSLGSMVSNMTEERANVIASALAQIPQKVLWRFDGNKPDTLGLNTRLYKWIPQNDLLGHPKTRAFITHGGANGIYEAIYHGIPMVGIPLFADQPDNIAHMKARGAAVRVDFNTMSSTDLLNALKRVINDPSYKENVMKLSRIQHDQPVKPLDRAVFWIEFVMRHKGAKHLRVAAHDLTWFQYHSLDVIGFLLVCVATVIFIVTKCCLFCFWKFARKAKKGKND
# T3: UGT2B7 (Homo sapiens, UniProt P16662)
# T3 sequence (P16662 whole entry): T2 sequence (P16662 whole entry)
# T4: UDP-glucuronosyltransferase 1A3 (Homo sapiens, UniProt P35503)
# T4 sequence (P35503 whole entry): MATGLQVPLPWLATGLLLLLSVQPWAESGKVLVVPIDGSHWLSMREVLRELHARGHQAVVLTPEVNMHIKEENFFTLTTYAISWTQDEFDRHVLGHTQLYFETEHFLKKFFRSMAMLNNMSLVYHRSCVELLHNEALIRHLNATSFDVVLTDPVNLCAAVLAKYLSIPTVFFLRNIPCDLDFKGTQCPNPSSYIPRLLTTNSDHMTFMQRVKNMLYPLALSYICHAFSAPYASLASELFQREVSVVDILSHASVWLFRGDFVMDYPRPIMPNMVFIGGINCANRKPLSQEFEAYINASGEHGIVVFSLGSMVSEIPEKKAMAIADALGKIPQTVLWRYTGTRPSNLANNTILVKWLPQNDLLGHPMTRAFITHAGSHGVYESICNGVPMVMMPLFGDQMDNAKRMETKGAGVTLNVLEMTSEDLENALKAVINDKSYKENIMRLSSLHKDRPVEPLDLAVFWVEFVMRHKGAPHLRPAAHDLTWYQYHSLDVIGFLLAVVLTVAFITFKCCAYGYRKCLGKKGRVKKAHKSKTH
# B1: UDP-glucuronosyltransferase 1A6 (Homo sapiens) (protein)
# chain: MACLLRSFQRISAGVFFLALWGMVVGDKLLVVPQDGSHWLSMKDIVEVLSDRGHEIVVVVPEVNLLLKESKYYTRKIYPVPYDQEELKNRYQSFGNNHFAERSFLTAPQTEYRNNMIVIGLYFINCQSLLQDRDTLNFFKESKFDALFTDPALPCGVILAEYLGLPSVYLFRGFPCSLEHTFSRSPDPVSYIPRCYTKFSDHMTFSQRVANFLVNLLEPYLFYCLFSKYEELASAVLKRDVDIITLYQKVSVWLLRYDFVLEYPRPVMPNMVFIGGINCKKRKDLSQEFEAYINASGEHGIVVFSLGSMVSEIPEKKAMAIADALGKIPQTVLWRYTGTRPSNLANNTILVKWLPQNDLLGHPMTRAFITHAGSHGVYESICNGVPMVMMPLFGDQMDNAKRMETKGAGVTLNVLEMTSEDLENALKAVINDKSYKENIMRLSSLHKDRPVEPLDLAVFWVEFVMRHKGAPHLRPAAHDLTWYQYHSLDVIGFLLAVVLTVAFITFKCCAYGYRKCLGKKGRVKKAHKSKTH
# B2: UDP-glucuronosyltransferase 1A7 (Homo sapiens) (protein)
# chain: MARAGWTGLLPLYVCLLLTCGFAKAGKLLVVPMDGSHWFTMQSVVEKLILRGHEVVVVMPEVSWQLGRSLNCTVKTYSTSYTLEDQDREFMVFADARWTAPLRSAFSLLTSSSNGIFDLFFSNCRSLFNDRKLVEYLKESCFDAVFLDPFDACGLIVAKYFSLPSVVFARGIFCHYLEEGAQCPAPLSYVPRLLLGFSDAMTFKERVWNHIMHLEEHLFCPYFFKNVLEIASEILQTPVTAYDLYSHTSIWLLRTDFVLEYPKPVMPNMIFIGGINCHQGKPVPMEFEAYINASGEHGIVVFSLGSMVSEIPEKKAMAIADALGKIPQTVLWRYTGTRPSNLANNTILVKWLPQNDLLGHPMTRAFITHAGSHGVYESICNGVPMVMMPLFGDQMDNAKRMETKGAGVTLNVLEMTSEDLENALKAVINDKSYKENIMRLSSLHKDRPVEPLDLAVFWVEFVMRHKGAPHLRPAAHDLTWYQYHSLDVIGFLLAVVLTVAFITFKCCAYGYRKCLGKKGRVKKAHKSKTH
# Columns and labels:
# [1] = target: T1, UDP-glucuronosyltransferase 1A4; assay: Drug glucuronidation reaction catalyzed by human recombinant UGT1A4
# [2] = Inhibition of mycophenolic acid (0.5 mM) glucuronidation by human kidney microsomes; design: species or system Microsome
# [3] = Inhibition of mycophenolic acid (1 mM) glucuronidation by human UGT enzymes from liver microsomes; design: species or system Microsome
# [4] = Inhibition of AZT glucuronidation by human UGT enzymes from liver microsomes; design: species or system Microsome
# [5] = Inhibition of codeine glucuronidation by human UGT enzymes from liver microsomes; design: species or system Microsome
# [6] = Inhibition of ciramadol glucuronidation by human UGT enzymes from liver microsomes; design: species or system Microsome
# [7] = Inhibition of morphine glucuronidation by human UGT enzymes from liver microsomes; design: species or system Microsome
# [8] = Inhibition of 4-methylumbelliferone glucuronidation by human UGT enzymes from liver microsomes; design: species or system Microsome
# [9] = Inhibition of morphine (3-O-glucuronidation) glucuronidation by human UGT enzymes from liver microsomes; design: species or system Microsome
# [10] = Inhibition of morphine (6-O-glucuronidation) glucuronidation by human UGT enzymes from liver microsomes; design: species or system Microsome
# [11] = target: T2, UDP-glucuronosyltransferase 2B7; assay: (§1) Drug glucuronidation reaction catalyzed by human recombinant UGT2B7
# UGT2B7 = target: T3, UGT2B7; assay: as §1; conditions: recombinant UGT2B7
# [12] = target: T4, UDP-glucuronosyltransferase 1A3; assay: Drug glucuronidation reaction catalyzed by human recombinant UGT1A3
# [13] = substrate: CCc1c2c(nc3ccc(O)cc13)-c1cc3c(c(=O)n1C2)COC(=O)[C@]3(O)CC; assay: (§2) Drug glucuronidation reaction catalyzed by human recombinant UGT1A6
# [14] = substrate: CN1CC[C@]23c4c5ccc(O[C@@H]6O[C@H](C(=O)O)[C@@H](O)[C@H](O)[C@H]6O)c4O[C@H]2[C@@H](O)C=C[C@H]3[C@H]1C5; assay: as §2
# [15] = substrate: CCc1c2c(nc3ccc(O)cc13)-c1cc3c(c(=O)n1C2)COC(=O)[C@]3(O)CC; assay: (§3) Drug glucuronidation reaction catalyzed by human recombinant UGT1A7
# [16] = substrate: COc1c(C)c2c(c(O)c1C/C=C(\C)CCC(=O)O)C(=O)OC2; assay: as §3
molecule,measurement,setting,value
CN(C)CCCN1c2ccccc2CCc2ccccc21 [IMIPRAMINE],Km,[1],310 µM
same,Vmax,[1],180 pmol/min/mg protein
O=C(O)c1ccccc1Nc1cccc(C(F)(F)F)c1 [FLUFENAMIC ACID],IC50,[2],13 µM
same,IC50,[3],19 µM
C[C@]12CC[C@H]3[C@@H](CCC4=CC(=O)CC[C@@]43C)[C@@H]1CC[C@@H]2O [TESTOSTERONE],Ki,[4],250 µM
CCCCC1C(=O)N(c2ccccc2)N(c2ccccc2)C1=O [PHENYLBUTAZONE],Ki,[4],1400 µM
same,Ki,[5],1700 µM
CN/C(=N\CCSCc1nc[nH]c1C)NC#N [CIMETIDINE],Ki,[4],11000 µM
O=C1Nc2ccc(Cl)cc2C(c2ccccc2Cl)=NC1O (configuration not stated) [LORAZEPAM],Ki,[6],140 µM
same,Ki,[4],160 µM
same,Ki,[7],160 µM
C#C[C@]1(O)CC[C@H]2[C@@H]3CCc4cc(O)ccc4[C@H]3CC[C@@]21C [ETHINYL ESTRADIOL],Ki,[4],38 µM and 150 µM
CN1C(=O)C(O)N=C(c2ccccc2)c2cc(Cl)ccc21 (configuration not stated) [TEMAZEPAM],Ki,[4],580 µM
same,Ki,[8],217 µM
Cc1cccc(Nc2ccccc2C(=O)O)c1C [MEFENAMIC ACID],IC50,[2],49 µM
same,IC50,[3],63 µM
C=CCN1CC[C@]23c4c5ccc(O)c4O[C@H]2C(=O)CC[C@@]3(O)[C@H]1C5 [NALOXONE],Ki,[7],630 µM
CN1C(=O)CN=C(c2ccccc2)c2cc(Cl)ccc21 [DIAZEPAM],Ki,[6],40 µM
same,Ki,[4],300 µM
same,Ki,[7],120 µM
same,Ki,[5],180 µM
O=C1C(CC[S+]([O-])c2ccccc2)C(=O)N(c2ccccc2)N1c1ccccc1 (configuration not stated) [SULFINPYRAZONE],Ki,[4],2100 µM
CC(C(=O)O)c1cccc(Oc2ccccc2)c1 (configuration not stated) [FENOPROFEN],Ki,[8],220 µM
CNCCC=C1c2ccccc2CCc2ccccc21 [NORTRIPTYLINE],Ki,[9],33 µM
same,Ki,[10],27 µM
O=C(O)c1cc(-c2ccc(F)cc2F)ccc1O [DIFLUNISAL],IC50,[2],122 µM
same,IC50,[3],109 µM
O=C(O)c1cccnc1Nc1cccc(C(F)(F)F)c1 [NIFLUMIC ACID],IC50,[2],8 µM
same,IC50,[3],8 µM
Cc1noc(NS(=O)(=O)c2ccc(N)cc2)c1C [SULFISOXAZOLE],Ki,[4],47000 µM
COc1ccc2c(c1)c(CC(=O)O)c(C)n2C(=O)c1ccc(Cl)cc1 [INDOMETHACIN],Ki,[4],200 µM
CCOC(=O)Nc1ccc(NCc2ccc(F)cc2)cc1N [EZOGABINE],Km,[1],322 µM
Nc1ccc(S(=O)(=O)c2ccc(N)cc2)cc1 [DAPSONE],Ki,[4],1700 µM
Cc1cn([C@H]2C[C@H](N=[N+]=[N-])[C@@H](CO)O2)c(=O)[nH]c1=O [ZIDOVUDINE],Vmax,[11],210 pmol/min/mg protein
same,Km,UGT2B7,770 µM
Nc1ccc(S(=O)(=O)Nc2nccs2)cc1 [SULFATHIAZOLE],Ki,[4],24000 µM
Cc1cc(CC(=O)O)n(C)c1C(=O)c1ccc(Cl)cc1 [ZOMEPIRAC],Ki,[4],2100 µM
CN1CCC(=C2c3ccccc3CC(=O)c3sccc32)CC1 [KETOTIFEN],Vmax,[12],6 pmol/min/mg protein and 12 pmol/min/mg protein
same,Vmax,[1],130 pmol/min/mg protein and 140 pmol/min/mg protein
CN1C(=O)CN=C(c2ccccc2F)c2cc([N+](=O)[O-])ccc21 [FLUNITRAZEPAM],Ki,[4],190 µM
CN(C)CCCN1c2ccccc2CCc2ccc(Cl)cc21 [CLOMIPRAMINE],Ki,[9],90 µM
same,Ki,[10],56 µM
COc1ccc2cc([C@H](C)C(=O)O)ccc2c1 [NAPROXEN],Ki,[4],172 µM and 1100 µM
CN(C)CCC=C1c2ccccc2CCc2ccccc21 [AMITRIPTYLINE],Ki,[9],160 µM
same,Ki,[10],80 µM
same,Ki,[5],130 µM
O=C(N[C@H](CO)[C@H](O)c1ccc([N+](=O)[O-])cc1)C(Cl)Cl [CHLORAMPHENICOL],Ki,[4],250 µM
same,Ki,[7],980 µM
same,Ki,[5],270 µM
B1,Km,[13],97 µM
same,Vmax,[13],2.8e-05 µmol/min/mg
same,Km,[14],18000 µM
same,Vmax,[14],2.1e-05 µmol/min/mg
B2,Km,[15],5 µM
same,Vmax,[15],< 1e-06 µmol/min/mg
same,Km,[16],30 µM
same,Vmax,[16],0.00037 µmol/min/mg

# — ChEMBL document CHEMBL1908105, “UDP-glucuronosyltransferases and clinical drug-drug interactions” (Pharmacol Ther, 2005)
